In test [1] the target is T1, TYRO3 (Homo sapiens, UniProt Q06418).
T1 construct: purchased Eurofins Discovery (Kinase Profiler service)
T1 sequence (Q06418 41-890): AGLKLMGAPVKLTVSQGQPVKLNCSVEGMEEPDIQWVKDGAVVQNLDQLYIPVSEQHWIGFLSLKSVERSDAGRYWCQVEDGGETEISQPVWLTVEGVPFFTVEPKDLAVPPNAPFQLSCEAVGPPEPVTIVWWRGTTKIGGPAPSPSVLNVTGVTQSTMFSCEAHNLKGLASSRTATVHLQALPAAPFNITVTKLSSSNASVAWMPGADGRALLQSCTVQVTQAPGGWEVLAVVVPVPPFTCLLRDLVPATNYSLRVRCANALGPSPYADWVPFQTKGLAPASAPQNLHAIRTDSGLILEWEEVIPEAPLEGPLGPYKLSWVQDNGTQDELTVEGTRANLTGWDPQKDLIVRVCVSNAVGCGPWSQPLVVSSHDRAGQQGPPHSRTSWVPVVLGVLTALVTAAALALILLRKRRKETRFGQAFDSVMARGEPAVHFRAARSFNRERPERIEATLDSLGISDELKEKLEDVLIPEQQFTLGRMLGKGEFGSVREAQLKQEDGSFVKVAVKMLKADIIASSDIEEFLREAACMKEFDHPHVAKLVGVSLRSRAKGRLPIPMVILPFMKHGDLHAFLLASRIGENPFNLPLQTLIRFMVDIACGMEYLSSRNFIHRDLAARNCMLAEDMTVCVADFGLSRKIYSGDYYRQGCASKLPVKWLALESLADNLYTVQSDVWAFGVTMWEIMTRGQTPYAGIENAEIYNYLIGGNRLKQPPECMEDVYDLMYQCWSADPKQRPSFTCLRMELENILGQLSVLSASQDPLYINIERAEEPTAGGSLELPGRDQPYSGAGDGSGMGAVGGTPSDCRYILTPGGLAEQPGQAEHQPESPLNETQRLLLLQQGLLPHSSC
Description: Filter-binding radiometric kinase activity assay (KinaseProfiler, Eurofins). The format is biochemical. Conditions: 1 µM compound; read-out: % Residual enzymatic activity at 1 µM TYRO3.

The test system of test [2] is MV4-11. As to the kind of experiment: Proliferation assay (MTT, leukaemia cancer cell line). Format: cell-based. Conditions: Homo sapiens; 1 µM compound, MV4-11 cells. An excerpt: (§1) Compounds from Example 1 were subjected to standard resazurin and MTT assays on solid tumour and leukaemia cancer cell lines, respectively, as previously reported (Wang S et al., J Med Chem 47:1662-1675, 2004 and Diab S et al., CheMedChem 9:962-972, 2014).

Test [3] has as its system MDA-MB-231. Description: Proliferation assay (resazurin, solid tumour cell line). The format is cell-based. Conditions: Homo sapiens; MDA-MB-231 cells.
Source text: as §1

Results on 6 compounds are retold here after US20230339889A1, “DERIVATIVES OF 2-OXO-N-(4-(PYRIMIDIN-4-YLOXY/THIO)PHENYL)-1,2-DIHYDROPYRIDINE-3-CARBOXAMIDE FOR USE AS PROTEIN KINASE INHIBITORS FOR THERAPY” (AUCENTRA THERAPEUTICS PTY LTD, priority 2020, published 2023).

As a reminder, the GI50 is the concentration that inhibits growth by half. Lower therefore signals greater sensitivity of the cells.

Consider `Nc1ncnc(Oc2ccc(NC(=O)c3cccn(-c4ccc(F)cc4)c3=O)c(F)c2)c1Cl` [Cmpd 5, N-(4-((6-amino-5-chloropyrimidin-4-yl)oxy)-2-fluorophenyl)-1-(4-fluorophenyl)-2-oxo-1,2-dihydropyridine-3-carboxamide], for which the remaining activity at 1 µM in test [1] amounted to 2%. The same compound came in with an activity at 1 µM in test [2] of 6%. This compound had a GI50 in test [3] of 0.9 µM.
`Nc1ncnc(Oc2ccc(NC(=O)c3cccn(-c4ccc(F)cc4)c3=O)c(F)c2)c1F` [Cmpd 7, N-(4-((6-amino-5-fluoropyrimidin-4-yl)oxy)-2-fluorophenyl)-1-(4-fluorophenyl)-2-oxo-1,2-dihydropyridine-3-carboxamide]: the remaining activity at 1 µM in test [1] worked out at 5%. Also, the activity at 1 µM in test [2] was 6%. Moreover, the 50% growth inhibitory concentration (GI50) in test [3] stood at 2.3 µM.
The corresponding values for `Nc1ncnc(Oc2ccc(NC(=O)c3cccn(-c4ccc(F)cc4)c3=O)cc2)c1F` [Cmpd 6, N-(4-((6-amino-5-fluoropyrimidin-4-yl)oxy)phenyl)-1-(4-fluorophenyl)-2-oxo-1,2-dihydropyridine-3-carboxamide] are 6%, 3% and 8.9 µM.
For `Nc1ncnc(Oc2ccc(NC(=O)c3cccn(-c4ccc(F)cc4)c3=O)cc2)c1Cl` [Cmpd 4, N-(4-((6-amino-5-chloropyrimidin-4-yl)oxy)phenyl)-1-(4-fluorophenyl)-2-oxo-1,2-dihydropyridine-3-carboxamide] the same measures were 2%, 6% and 2.7 µM.
As to `Nc1ncnc(Oc2ccc(NC(=O)c3cccn(-c4ccc(F)cc4)c3=O)cc2F)c1F` [Cmpd 1, N-(4-((6-amino-5-fluoropyrimidin-4-yl)oxy)-3-fluorophenyl)-1-(4-fluorophenyl)-2-oxo-1,2-dihydropyridine-3-carboxamide], the remaining activity at 1 µM in test [1] was -1%. In test [2], the activity at 1 µM was 3%. The compound also registered a 50% growth inhibitory concentration (GI50) in test [3] of 1.2 µM.
The corresponding values for `Nc1ncnc(Oc2ccc(NC(=O)c3cccn(-c4ccc(F)cc4)c3=O)cc2F)c1Cl` [Cmpd 3, N-(4-((6-amino-5-chloropyrimidin-4-yl)oxy)-3-fluorophenyl)-1-(4-fluorophenyl)-2-oxo-1,2-dihydropyridine-3-carboxamide] are 0%, 3% and 7.9 µM.
